test system: VSV-g pseudotyped HIV vector that expresses luciferase (PHIV); experiment: microbe, parasite or virus in culture; type: cell-based; settings: Human immunodeficiency virus 1, HEK-293T, 48 h, read-out: PHIV IC50

| SMILES | IC50 [nM] |
| --- | --- |
| O=C(NCc1ccc(F)cc1F)c1cn2c(c(O)c1=O)C(=O)N1[C@@H](C2)OC[C@@H]2CCCC[C@@H]21 (racemic) [Example Z-35, racemic-(4aR,6aR,14aS)—N-[(2,4-Difluorophenyl)methyl]-12-hydroxy-11,13-dioxo-1,3,4,4a,5,6a,7,11,13,14a-decahydro-2H-pyrido[1′,2′:4,5]pyrazino[1,2-a][3,1]benzoxazine-10-carboxamide] | < 10 |
| O=C(NCc1ccc(F)cc1)c1cn2c(c(O)c1=O)C(=O)N1[C@@H](C2)OC[C@@H]2CCCC[C@@H]21 (racemic) [Example Z-36, racemic-(4R,6aR,14aS)—N-[(4-Fluorophenyl)methyl]-12-hydroxy-11,13-d oxo-1,3,4,4a,5,6a,7,11,13,14a-decahydro-2H-pyrido[1′,2′:4,5]pyrazino[1,2-a][3,1]benzoxazine-10-carboxamide] | < 10 |
| O=C(NCc1ccc(F)cc1F)c1cn2c(c(O)c1=O)C(=O)N1[C@@H](C2)OC[C@@H]2C[C@@H](c3ccccc3)CC[C@@H]21 (racemic) [Example Z-37, racemic-(3S,4aR,6aR,14aS)—N-[(2,4-Difluorophenyl)methyl]-12-hydroxy-11,13-dioxo-3-phenyl-1,3,4,4a,5,6a,7,11,13,14a-decahydro-2H-pyrido[1′,2′:4,5]pyrazino[1,2-a][3,1]benzoxazine-10-carboxamide] | < 10 |
| CC(C)CN1C[C@@H]2CCCC[C@@H]2N2C(=O)c3c(O)c(=O)c(C(=O)NCc4ccc(F)cc4F)cn3C[C@@H]12 (racemic) [Example Z-38, Sodium racemic-(4aS,6aS,14aS)-10-({[(2,4-difluorophenyl)methyl]amino}carbonyl)-6-(2-methylpropyl)-11,13-dioxo-1,2,3,4,4a,5,6,6a,7,11,13,14a-dodecahydropyrido[1′,2′:4,5]pyrazino[1,2-a]quinazolin-12-olate] | 10 to 100 |
| CC(C)CN1C[C@@H]2CCC[C@@H]2N2C(=O)c3c(O)c(=O)c(C(=O)NCc4ccc(F)cc4F)cn3C[C@@H]12 (racemic) [Example Z-49, racemic-(3aS,5aS,13aS)—N-[(2,4-Difluorophenyl)methyl]-11-hydroxy-5-(2-methylpropyl)-10,12-dioxo-2,3,3a,4,5,5a,6,10,12,13a-decahydro-1H-cyclopenta[e]pyrido[1′,2′:4,5]pyrazino[1,2-a]pyrimidine-9-carboxamide] | < 10 |
| O=C(NCc1ccc(F)cc1F)c1cn2c(c(O)c1=O)C(=O)N1[C@H]3CCCC[C@H]3CN(CCN3CCOCC3)[C@@H]1C2 (racemic) [Example Z-51, racemic-(4aS,6aS,14aS)—N-[(2,4-Difluorophenyl)methyl]-12-hydroxy-6-[2-(4-morpholinyl)ethyl]-11,13-dioxo-1,2,3,4,4a,5,6,6a,7,11,13,14a-dodecahydropyrido-[1′,2′:4,5]pyrazino[1,2-a]quinazoline-10-carboxamide] | < 10 |
| O=C(NCc1ccc(F)cc1F)c1cn2c(c(O)c1=O)C(=O)N1[C@@H](C2)OC[C@@H]2CCC[C@@H]21 (racemic) [Example Z-52, racemic-(3aR,5aR,13aS)—N-[(2,4-Difluorophenyl)methyl]-11-hydroxy-10,12-dioxo-1,2,3,3a,4,5a,6,10,12,13a-decahydrocyclopenta[d]pyrido[1′,2′:4,5]pyrazino[2,1-b][1,3]oxazine-9-carboxamide] | < 10 |
| CN1C[C@@H]2CCCC[C@@H]2N2C(=O)c3c(O)c(=O)c(C(=O)NCc4ccc(F)cc4F)cn3C[C@@H]12 (racemic) [Example Z-53, racemic-(4aS,6aS,14aS)—N-[(2,4-Difluorophenyl)methyl]-12-hydroxy-6-methyl-11,13-dioxo-1,2,3,4,4a,5,6,6a,7,11,13,14a-dodecahydropyrido[1′,2′:4,5]pyrazino[1,2-a]quinazoline-10-carboxamide] | < 10 |

From US11267823B2, “Substituted 1,2,3,3a,4,5,7,9,13,13a-decahydropyrido[1′,2′:4,5]pyrazino[1,2-a]pyrrolo[1,2-c]pyrimidines having HIV integrase inhibitory activity” (Shionogi & Co., Ltd., priority 2005, dated 2022)
